# Data published in patent publication US20240409585A1, “MACROCYCLIC IMMUNOMODULATORS” (priority 2021, published 2024).
# Numbered stars: 1 amine (or outer) side, 2 acyl side, 3 side chain; on linkers, the order of the positions; unused ones are H or OH. Bridge positions count the residues as written; N and C are the ends. Square brackets hold non-standard residues; d marks the D form. Peptide text beside a SMILES is read from it. * marks the point of attachment. ξ: configuration not given here. Phe(3-CF3) = N[C@@H](Cc1cccc(C(F)(F)F)c1)C(=O)O; Ala(morpholin-4-yl) = N[C@@H](CN1CCOCC1)C(=O)O; Phe(4-COOH) = N[C@@H](Cc1ccc(C(=O)O)cc1)C(=O)O; Bip = N[C@@H](Cc1ccc(-c2ccccc2)cc1)C(=O)O; Phe(3-Br) = N[C@@H](Cc1cccc(Br)c1)C(=O)O; Phe(3-F) = N[C@@H](Cc1cccc(F)c1)C(=O)O; Phe(3-Me) = Cc1cccc(C[C@H](N)C(=O)O)c1; 2Nal = N[C@@H](Cc1ccc2ccccc2c1)C(=O)O; X34 = O=C([C@H](Cc1ccoc1)N[*:1])[*:2]; Phe(2-F) = N[C@@H](Cc1ccccc1F)C(=O)O; Val(3-OH) = CC(C)(O)[C@H](N)C(=O)O; Cha = N[C@@H](CC1CCCCC1)C(=O)O; Ile(3ξ) = CCC(C)[C@H](N)C(=O)O; Thr(3ξ) = CC(O)[C@H](N)C(=O)O; ξCha = NC(CC1CCCCC1)C(=O)O; Carboxymethyl = O=C(O)C*; NMeA = CN[C@@H](C)C(=O)O; Orn = NCCC[C@H](N)C(=O)O; Dab = NCC[C@H](N)C(=O)O; ξDab = NCCC(N)C(=O)O
# Target: T1, PE-labeled human PD-L1-Ig binding to Jurkat cell line over-expressing human PD-1 (Jurkat-PD-1) (Homo sapiens, UniProt Q15116)
# T1 construct: expressed in transfected cells; host or cells: Jurkat
# Experiment: Jurkat-PD-1 Cell Binding High-Content Screening Assay (CBA): Method 1
# Settings: Jurkat-PD-1 cells, PE-labeled PD-L1-Ig; μM; read-out: CBA Method 1 μM
# T1 sequence (Q15116 25-288): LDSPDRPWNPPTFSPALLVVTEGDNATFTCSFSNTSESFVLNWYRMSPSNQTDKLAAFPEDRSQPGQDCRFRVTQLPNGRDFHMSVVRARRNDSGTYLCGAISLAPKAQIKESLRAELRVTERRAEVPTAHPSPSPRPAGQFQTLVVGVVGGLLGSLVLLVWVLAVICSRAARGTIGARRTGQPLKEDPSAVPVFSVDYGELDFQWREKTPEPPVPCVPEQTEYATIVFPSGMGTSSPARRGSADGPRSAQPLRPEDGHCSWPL
row,IC50 [µM],Structure (SMILES)
1,0.03,CCC(C)[C@@H]1NC(=O)[C@H](Cc2ccc(-c3ccccc3)cc2)NC(=O)[C@H](C(C)C)NC(=O)[C@H](Cc2c[nH]c3ccccc23)NC(=O)[C@H](CC(=O)O)NC(=O)[C@H](Cc2ccc(OCC(=O)O)cc2)NC(=O)[C@H](C(C)O)NC(=O)CSC[C@@H](C(=O)N[C@@H](CO)C(=O)NCC(=O)N[C@@H](CO)C(N)=O)NC(=O)[C@H](C(C)O)NC(=O)[C@H](C(C)C)NC(=O)C(CC2CCCCC2)NC(=O)[C@H](CCN)NC(=O)[C@@H](CC(C)C)NC(=O)[C@H](C)N(C)C1=O (stereo partly drawn) [Example 5003] ({CH2CO}-[Thr(3ξ)]Y(Carboxymethyl)DWV[Bip][Ile(3ξ)][NMeA][dL][Dab][ξCha]V[Thr(3ξ)]CSGS-NH2; thioether N-14)
2,0.03,Cc1cccc(C[C@@H]2NC(=O)[C@H](CC(=O)O)NC(=O)[C@H](Cc3ccc(OCC(=O)O)cc3)NC(=O)[C@H](C(C)O)NC(=O)CSC[C@@H](C(=O)N[C@@H](CO)C(=O)NCC(=O)N[C@@H](CO)C(N)=O)NC(=O)[C@H](C(C)O)NC(=O)[C@H](C(C)C)NC(=O)C(CC3CCCCC3)NC(=O)[C@H](CCN)NC(=O)[C@@H](CC(C)C)NC(=O)[C@H](C)N(C)C(=O)[C@H](Cc3ccc(OCC(=O)O)cc3)NC(=O)[C@H](Cc3ccc(-c4ccccc4)cc3)NC(=O)[C@H](Cc3ccc(C(=O)O)cc3)NC2=O)c1 (stereo partly drawn) [Example 5004] ({CH2CO}-[Thr(3ξ)]Y(Carboxymethyl)D[Phe(3-Me)][Phe(4-COOH)][Bip]Y(Carboxymethyl)[NMeA][dL][Dab][ξCha]V[Thr(3ξ)]CSGS-NH2; thioether N-14)
3,0.02,CCC(C)[C@@H]1NC(=O)[C@H](Cc2ccc(-c3ccccc3)cc2)NC(=O)[C@H](C(C)C)NC(=O)[C@H](Cc2cccc(C)c2)NC(=O)[C@H](CC(=O)O)NC(=O)[C@H](Cc2ccc(OCC(=O)O)cc2)NC(=O)[C@H](C(C)O)NC(=O)CSC[C@@H](C(=O)N[C@@H](CO)C(=O)NCC(=O)N[C@H](CO)C(N)=O)NC(=O)[C@H](C(C)O)NC(=O)[C@H](C(C)C)NC(=O)C(CC2CCCCC2)NC(=O)[C@H](CCN)NC(=O)[C@@H](CC(C)C)NC(=O)[C@H](C)N(C)C1=O (stereo partly drawn) [Example 5005] ({CH2CO}-[Thr(3ξ)]Y(Carboxymethyl)D[Phe(3-Me)]V[Bip][Ile(3ξ)][NMeA][dL][Dab][ξCha]V[Thr(3ξ)]CSG[dS]-NH2; thioether N-14)
4,0.02,CCC(C)[C@@H]1NC(=O)[C@H](Cc2ccc(-c3ccccc3)cc2)NC(=O)[C@H](C(C)C)NC(=O)[C@H](Cc2c[nH]c3ccccc23)NC(=O)[C@H](CC(=O)O)NC(=O)[C@H](Cc2ccc(OCC(=O)O)cc2)NC(=O)[C@H](C(C)O)NC(=O)CSC[C@@H](C(=O)N[C@H](CO)C(=O)NCC(=O)N[C@@H](CO)C(N)=O)NC(=O)[C@H](CO)NC(=O)[C@H](C(C)C)NC(=O)C(CC2CCCCC2)NC(=O)[C@H](CCN)NC(=O)[C@@H](CC(C)C)NC(=O)[C@H](C)N(C)C1=O (stereo partly drawn) [Example 5006] ({CH2CO}-[Thr(3ξ)]Y(Carboxymethyl)DWV[Bip][Ile(3ξ)][NMeA][dL][Dab][ξCha]VSC[dS]GS-NH2; thioether N-14)
5,0.45,CCC(C)[C@@H]1NC(=O)[C@H](Cc2ccc(-c3ccccc3)cc2)NC(=O)[C@H](C(C)C)NC(=O)[C@H](Cc2c[nH]c3ccccc23)NC(=O)[C@H](CC(=O)O)NC(=O)[C@H](Cc2ccc(O)cc2)NC(=O)[C@H](Cc2ccoc2)NC(=O)CSC[C@@H](C(=O)N2CCC[C@H]2C(N)=O)NC(=O)[C@H](C(C)O)NC(=O)[C@H](C(C)(C)O)NC(=O)[C@H](CC2CCCCC2)NC(=O)[C@H](CC(N)=O)NC(=O)[C@@H](CC(C)C)NC(=O)[C@H](C)N(C)C1=O (stereo partly drawn) [Example 5009] ({CH2CO}-[X34]YDWV[Bip][Ile(3ξ)][NMeA][dL]N[Cha][Val(3-OH)][Thr(3ξ)]CP-NH2; thioether N-14)
6,0.131,Cc1cccc(C[C@@H]2NC(=O)[C@H](CC(=O)O)NC(=O)[C@H](Cc3ccc(OCC(=O)O)cc3)NC(=O)[C@H](CN3CCOCC3)NC(=O)CSC[C@@H](C(=O)N[C@@H](CCN)C(N)=O)NC(=O)[C@H](CCCN)NC(=O)[C@H](C(C)C)NC(=O)[C@H](Cc3ccc4ccccc4c3)NC(=O)[C@H](CCN)NC(=O)[C@@H](CC(C)C)NC(=O)[C@H](C)N(C)C(=O)[C@H](CCC(N)=O)NC(=O)[C@H](Cc3ccc(-c4ccccc4)cc3)NC(=O)[C@H](Cc3ccc(C(=O)O)cc3)NC2=O)c1 [Example 5044] ({CH2CO}-[Ala(morpholin-4-yl)]Y(Carboxymethyl)D[Phe(3-Me)][Phe(4-COOH)][Bip]Q[NMeA][dL][Dab][2Nal]V[Orn]C[Dab]-NH2; thioether N-14)

# Same assay, conditions: Jurkat-hPD-1 cells, PE-labeled PD-L1-Ig 20 nM final; read-out: Jurkat HPDL1 PD1 IC50 (uM) (Method 1)
row,IC50 [µM],Structure (SMILES)
1,0.77,Cc1cccc(C[C@@H]2NC(=O)[C@H](CC(N)=O)NC(=O)[C@H](Cc3ccc(OCC(=O)O)cc3)NC(=O)[C@H]([C@@H](C)O)NC(=O)CSC[C@@H](C(=O)N[C@@H](CCN)C(N)=O)NC(=O)[C@H](CCC(=O)O)NC(=O)[C@H](C(C)C)NC(=O)[C@H](CC3CCCCC3)NC(=O)[C@H](CCN)NC(=O)[C@@H](CC(C)C)NC(=O)[C@H](C)N(C)C(=O)[C@H](Cc3ccc(OCC(=O)O)cc3)NC(=O)[C@H](Cc3ccc(-c4ccccc4)cc3)NC(=O)[C@H](Cc3ccc(OCC(=O)O)cc3)NC2=O)c1 [Example 2281] ({CH2CO}-TY(Carboxymethyl)N[Phe(3-Me)]Y(Carboxymethyl)[Bip]Y(Carboxymethyl)[NMeA][dL][Dab][Cha]VEC[Dab]-NH2; thioether N-14)
2,0.08,CC(C)[C@@H]1NC(=O)[C@H](CC2CCCCC2)NC(=O)[C@H](CCN)NC(=O)CNC(=O)[C@H](C)N(C)C(=O)[C@H](Cc2ccc(C(=O)O)cc2)NC(=O)[C@H](Cc2ccc(-c3ccccc3)cc2)NC(=O)[C@H](Cc2ccc(C(=O)O)cc2)NC(=O)[C@H](Cc2cccc(C(F)(F)F)c2)NC(=O)[C@H](CC(=O)O)NC(=O)[C@H](Cc2ccc(C(=O)O)cc2)NC(=O)[C@H](CN2CCOCC2)NC(=O)CSC[C@@H](C(=O)N[C@@H](CCN)C(N)=O)NC(=O)[C@H](CCC(=O)O)NC1=O [Example 2286] ({CH2CO}-[Ala(morpholin-4-yl)][Phe(4-COOH)]D[Phe(3-CF3)][Phe(4-COOH)][Bip][Phe(4-COOH)][NMeA]G[Dab][Cha]VEC[Dab]-NH2; thioether N-14)
3,0.21,Cc1cccc(C[C@@H]2NC(=O)[C@H](CC(=O)O)NC(=O)[C@H](Cc3ccc(OCC(=O)O)cc3)NC(=O)[C@H](CN3CCOCC3)NC(=O)CSC[C@@H](C(=O)N[C@@H](CCN)C(N)=O)NC(=O)[C@H](CCCN)NC(=O)[C@H](C(C)C)NC(=O)[C@H](Cc3cccc(Br)c3)NC(=O)[C@H](CCN)NC(=O)[C@@H](CC(C)C)NC(=O)[C@H](C)N(C)C(=O)[C@H](CCC(N)=O)NC(=O)[C@H](Cc3ccc(-c4ccccc4)cc3)NC(=O)[C@H](Cc3ccc(C(=O)O)cc3)NC2=O)c1 [Example 2291] ({CH2CO}-[Ala(morpholin-4-yl)]Y(Carboxymethyl)D[Phe(3-Me)][Phe(4-COOH)][Bip]Q[NMeA][dL][Dab][Phe(3-Br)]V[Orn]C[Dab]-NH2; thioether N-14)
4,0.95,Cc1cccc(C[C@@H]2NC(=O)[C@H](CC(=O)O)NC(=O)[C@H](Cc3ccc(OCC(=O)O)cc3)NC(=O)[C@H](CN3CCOCC3)NC(=O)CSC[C@@H](C(=O)N[C@@H](CCN)C(N)=O)NC(=O)[C@H](CCCN)NC(=O)[C@H](C(C)C)NC(=O)[C@H](Cc3cccc(F)c3)NC(=O)[C@H](CCN)NC(=O)[C@@H](CC(C)C)NC(=O)[C@H](C)N(C)C(=O)[C@H](CCC(N)=O)NC(=O)[C@H](Cc3ccc(-c4ccccc4)cc3)NC(=O)[C@H](Cc3ccc(C(=O)O)cc3)NC2=O)c1 [Example 2294] ({CH2CO}-[Ala(morpholin-4-yl)]Y(Carboxymethyl)D[Phe(3-Me)][Phe(4-COOH)][Bip]Q[NMeA][dL][Dab][Phe(3-F)]V[Orn]C[Dab]-NH2; thioether N-14)
5,0.44,Cc1cccc(C[C@@H]2NC(=O)[C@H](CC(=O)O)NC(=O)[C@H](Cc3ccc(OCC(=O)O)cc3)NC(=O)[C@H](CN3CCOCC3)NC(=O)CSC[C@@H](C(=O)N[C@@H](CCN)C(N)=O)NC(=O)[C@H](CCCN)NC(=O)[C@H](C(C)C)NC(=O)[C@H](Cc3ccccc3F)NC(=O)[C@H](CCN)NC(=O)[C@@H](CC(C)C)NC(=O)[C@H](C)N(C)C(=O)[C@H](CCC(N)=O)NC(=O)[C@H](Cc3ccc(-c4ccccc4)cc3)NC(=O)[C@H](Cc3ccc(C(=O)O)cc3)NC2=O)c1 [Example 2296] ({CH2CO}-[Ala(morpholin-4-yl)]Y(Carboxymethyl)D[Phe(3-Me)][Phe(4-COOH)][Bip]Q[NMeA][dL][Dab][Phe(2-F)]V[Orn]C[Dab]-NH2; thioether N-14)
6,0.01,Cc1cccc(C[C@@H]2NC(=O)[C@H](CC(=O)O)NC(=O)[C@H](Cc3ccc(OCC(=O)O)cc3)NC(=O)[C@H](CN3CCOCC3)NC(=O)CSC[C@@H](C(=O)NC(CCN)C(N)=O)NC(=O)[C@H](CCCN)NC(=O)[C@H](C(C)C)NC(=O)[C@H](Cc3cccc(C)c3)NC(=O)[C@H](CCN)NC(=O)[C@@H](CC(C)C)NC(=O)[C@H](C)N(C)C(=O)[C@H](CCC(N)=O)NC(=O)[C@H](Cc3ccc(-c4ccccc4)cc3)NC(=O)[C@H](Cc3ccc(C(=O)O)cc3)NC2=O)c1 (stereo partly drawn) [Example 2298] ({CH2CO}-[Ala(morpholin-4-yl)]Y(Carboxymethyl)D[Phe(3-Me)][Phe(4-COOH)][Bip]Q[NMeA][dL][Dab][Phe(3-Me)]V[Orn]C[ξDab]-NH2; thioether N-14)
7,0.98,Cc1cccc(C[C@@H]2NC(=O)[C@H](CC(=O)O)NC(=O)[C@H](Cc3ccc(OCC(=O)O)cc3)NC(=O)[C@H](CN3CCOCC3)NC(=O)CSC[C@@H](C(=O)NC(CCN)C(N)=O)NC(=O)[C@H](CCCN)NC(=O)[C@H](C(C)C)NC(=O)[C@H](Cc3ccc(O)cc3)NC(=O)[C@H](CCN)NC(=O)[C@@H](CC(C)C)NC(=O)[C@H](C)N(C)C(=O)[C@H](CCC(N)=O)NC(=O)[C@H](Cc3ccc(-c4ccccc4)cc3)NC(=O)[C@H](Cc3ccc(C(=O)O)cc3)NC2=O)c1 (stereo partly drawn) [Example 2301] ({CH2CO}-[Ala(morpholin-4-yl)]Y(Carboxymethyl)D[Phe(3-Me)][Phe(4-COOH)][Bip]Q[NMeA][dL][Dab]YV[Orn]C[ξDab]-NH2; thioether N-14)
